{"source": "patent US20070003613A1", "about": "“Preparations to support maintenance of acid-alkaline balance in the human body and methods directed to using same” (priority 2005, published 2007)", "origin": "cited, not measured here", "settings": "second dissociation", "data": [{"smiles": "NCC(=O)O", "note": "[glycine]", "values": [{"measurement": "pH at which the second H+ ion is liberated", "result": 9.6}]}]}
